# Assay results: patent publication US7045307B2, “Method for measuring no synthase activity” (Gruenenthal GmbH, priority 2000, dated 2006)
# Tests used:
# [1] = molecular target: T1, isolated nNOS from rat cerebella (Rattus norvegicus, UniProt P29476); experiment: Citrulline assay according to Bredt and Snyder (1990), separation by column chromatography; assay type: biochemical; settings: [3H]arginine 50 nM
# Excerpt: On completion of the reaction the enzyme mixtures are passed over separate cation exchange columns. Elution of the [^3H]L-citrulline and determination of the eluates then takes place on a β-counter. The disadvantage of this method is that column chromatography has to take place separately for each enzyme mixture (e.g. 96 chromatography columns are needed per 96 well microtiter plate).
# The precipitate is discarded.
# The separation was effected by means of column chromatography.
# [2] = molecular target: T1, isolated nNOS from rat cerebella; experiment: Arginine assay according to the invention (HTS NOS assay, cation exchanger filter MTP)
IC50 [2] [µM],inhibition at 10 µM ([2]; read-out: NOS inhibition) [%],Compound,IC50 [1] [µM],"IC50 ([2]; read-out: IC50 value, Arginine assay according to the invention as in Example 4, [3H]arginine 50 nM, nNOS from rat cerebella, 96 well cation exchanger filter MTP) [µM]"
5.02,,"C=CCC(=N)NCCC[C@H](N)C(=O)O [Vinyl L-NIO, N5-(1-imino-3-butenyl)-L-ornithine]",5.57,
,,"FC(F)(F)c1ccccc1-n1ccnc1 [TRIM, 1-(2-trifluormethylphenyl)imidazole]",> 100,> 100
,~50,"O=[N+]([O-])c1cccc2cn[nH]c12 [7-Nitroindazole, 7-nitroindazole]",,
